In US10273248B2, “Glucose uptake inhibitors” (Kadmon Corporation LLC, priority 2015, dated 2019):

Tested on: glycolysis in HT1080 cells
Assay: Glycolysis assay: oligomycin plus compound, cellular ATP by Cell Titer Glo
Format: cell-based
Details: Homo sapiens, HT-1080, 1 h, 10 μM oligomycin, one hour, class symbols
Summary of the method: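 Confluent HT1080 cells treated 1 h with compound plus 10 μM oligomycin to block mitochondrial ATP, so remaining ATP reflects glycolysis. Cellular ATP read by Cell Titer-Glo luminescence; IC50 derived from dose-response curves.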

IC50	SMILES
101 to 250 nM	CN1CCc2nc(-c3cccc(OCC(=O)NCC(C)(C)C)c3)nc(Nc3ccc(-c4cn[nH]c4)cc3)c2C1 [Example 168, 2-(3-(4-((4-(1H-pyrazol-4-yl)phenyl)amino)-6-methyl-5,6,7,8-tetrahydropyrido[4,3-d]pyrimidin-2-yl)phenoxy)-N-neopentylacetamide]
101 to 250 nM	Cn1ncc2c(Nc3ccc(-c4cn[nH]c4)cc3)nc(-c3cccc(OCC(=O)NC4CCCC4)c3)nc21 [Example 56, 2-(3-(4-((4-(1H-pyrazol-4-yl)phenyl)amino)-1-methyl-1H-pyrazolo[3,4-d]pyrimidin-6-yl)phenoxy)-N-cyclopentylacetamide]
10 to 100 nM	CCC(CC)NC(=O)COc1cccc(-c2nc3c(c(Nc4ccc(-c5cn[nH]c5)cc4)n2)CN(C(=O)C(C)C)CC3)c1 [Example 153, 2-(3-(4-((4-(1H-pyrazol-4-yl)phenyl)amino)-6-isobutyryl-5,6,7,8-tetrahydropyrido[4,3-d]pyrimidin-2-yl)phenoxy)-N-(pentan-3-yl)acetamide]
10 to 100 nM	CC(=O)N1CCc2nc(-c3cccc(OCC(=O)NCC(C)(C)C)c3)nc(Nc3ccc(-c4cn[nH]c4)cc3)c2C1 [Example 147, 2-(3-(4-((4-(1H-pyrazol-4-yl)phenyl)amino)-6-acetyl-5,6,7,8-tetrahydropyrido[4,3-d]pyrimidin-2-yl)phenoxy)-N-neopentylacetamide]
251 to 500 nM	O=C(COc1cccc(-c2nc(Nc3ccc(-c4cn[nH]c4)cc3)c3sccc3n2)c1)NC1CC(F)(F)C1 [Example 179, 2-(3-(4-((4-(1H-pyrazol-4-yl)phenyl)amino)thieno[3,2-d]pyrimidin-2-yl)phenoxy)-N-(3,3-difluorocyclobutyl)acetamide]
101 to 250 nM	O=C(COc1cccc(-c2nc(Nc3ccc(-c4cn[nH]c4)cc3)c3sccc3n2)c1)NC1CCCCC1 [Example 180, 2-(3-(4-((4-(1H-pyrazol-4-yl)phenyl)amino)thieno[3,2-d]pyrimidin-2-yl)phenoxy)-N-cyclohexylacetamide]
> 1000 nM	CCC(CC)NC(=O)COc1cc(-c2nc3c(c(Nc4ccc(-c5cn[nH]c5)cc4)n2)COC3)ccc1F [Example 97, 2-(5-(4-((4-(1H-pyrazol-4-yl)phenyl)amino)-5,7-dihydrofuro[3,4-d]pyrimidin-2-yl)-2-fluorophenoxy)-N-(pentan-3-yl)acetamide]
251 to 500 nM	O=C(COc1cccc(-c2nc(Nc3ccc(-c4cn[nH]c4)cc3)c3occc3n2)c1)NC1CCC1 [Example 25]
251 to 500 nM	CC(C)CNC(=O)COc1cccc(-c2nc(Nc3ccc(-c4cn[nH]c4)cc3)c3ncsc3n2)c1 [Example 68, 2-(3-(7-((4-(1H-pyrazol-4-yl)phenyl)amino)thiazolo[5,4-d]pyrimidin-5-yl)phenoxy)-N-isobutylacetamide]
501 to 1000 nM	CN1CCN(CC(=O)Nc2cccc(-c3nc(Nc4ccc(-c5cn[nH]c5)cc4)c4sccc4n3)c2)CC1 [Example 183, N-(3-(4-((4-(1H-pyrazol-4-yl)phenyl)amino)thieno[3,2-d]pyrimidin-2-yl)phenyl)-2-(4-methylpiperazin-1-yl)acetamide]
> 1000 nM	NC(=O)COc1cccc(-c2nc(Nc3ccc(-c4cn[nH]c4)cc3)c3sccc3n2)c1 [Example 139, 2-(3-(4-((4-(1H-pyrazol-4-yl)phenyl)amino)thieno[3,2-d]pyrimidin-2-yl)phenoxy)acetamide]
10 to 100 nM	CC(C)NC(=O)COc1cccc(-c2nc3c(c(Nc4ccc(-c5cn[nH]c5)cc4)n2)COCC3)c1 [Example 102, 2-(3-(4-((4-(1H-pyrazol-4-yl)phenyl)amino)-7,8-dihydro-5H-pyrano[4,3-d]pyrimidin-2-yl)phenoxy)-N-isopropylacetamide]
101 to 250 nM	CCC(C)(C)NC(=O)COc1cccc(-c2nc(Nc3ccc(-c4cn[nH]c4)cc3)c3sccc3n2)c1 [Example 111, 2-(3-(4-((4-(1H-pyrazol-4-yl)phenyl)amino)thieno[3,2-d]pyrimidin-2-yl)phenoxy)-N-(tert-pentyl)acetamide]
